Common to all, as to test: relative viability (nuclei count vs DMSO), 5 days (fraction); higher = more cells survive
Compound in assay [1]: N[C@@H]1CCCN(c2c(/C=C3\SC(=O)NC3=O)cccc2-c2ccccc2)C1 [AZD1208] + Cc1cc(Nc2cc(N3CCN(C)CC3)nc(Sc3ccc(NC(=O)C4CC4)cc3)n2)n[nH]1 [Tozasertib] (partner 0.1 µM)
The procedure, abridged:
(§1)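 Medians of duplicate plates are given as relative viability. That measure is the nuclei count in treated wells divided by the count in vehicle wells. Counts were taken on 4× images of lung cancer cell lines in 1536-well plates, 5 days after pin-tool dosing the day after seeding with one drug alone or a fixed anchor-drug dose plus five library-drug doses (not always all listed) in √10 steps.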

Compound in assay [2]: N[C@@H]1CCCN(c2c(/C=C3\SC(=O)NC3=O)cccc2-c2ccccc2)C1 [AZD1208] + CC(=O)c1c(C)c2cnc(Nc3ccc(N4CCNCC4)cn3)nc2n(C2CCCC2)c1=O [Palbociclib] (partner 0.5 µM)
A digest of the protocol: as §1

Compound in assay [3]: N[C@@H]1CCCN(c2c(/C=C3\SC(=O)NC3=O)cccc2-c2ccccc2)C1 [AZD1208] + Cc1nc(NC(=O)N2CCC[C@H]2C(N)=O)sc1-c1ccnc(C(C)(C)C(F)(F)F)c1 [Alpelisib] (partner 2 µM)
The procedure, abridged: as §1

Compound in assay [4]: N[C@@H]1CCCN(c2c(/C=C3\SC(=O)NC3=O)cccc2-c2ccccc2)C1 [AZD1208] + N=C(N)NC(=N)NCCc1ccccc1 [Phenformin] (partner 250 µM)
The procedure, abridged:
as §1

In the case of LXF-289, the relative viability came out at 0.178 in assay [1] (first compound 0.08 µM); 0.158 in assay [1] (first compound 0.253 µM); 0.16 in assay [1] (first compound 0.8 µM); 0.131 in assay [1] (first compound 2.53 µM); 0.123 in assay [1] (first compound 8 µM); 0.587 in assay [2] (first compound 0.08 µM). Also, the relative viability was 0.639 in assay [2] (first compound 0.253 µM); 0.583 in assay [2] (first compound 0.8 µM); 0.622 in assay [2] (first compound 2.53 µM); 0.635 in assay [2] (first compound 8 µM); 1.05 in assay [3] (first compound 0.08 µM); 1.13 in assay [3] (first compound 0.253 µM). In addition, the relative viability was determined as 1.01 in assay [3] (first compound 0.8 µM); 1.03 in assay [3] (first compound 2.53 µM); 1.03 in assay [3] (first compound 8 µM); 0.507 in assay [4] (first compound 0.08 µM); 0.55 in assay [4] (first compound 0.253 µM); 0.472 in assay [4] (first compound 0.8 µM). Also, the relative viability in assay [4] (first compound 2.53 µM) came to 0.528; in assay [4] (first compound 8 µM) it was 0.518.

Regarding NCI-H23, the relative viability amounted to 0.4 in assay [1] (first compound 0.08 µM); 0.365 in assay [1] (first compound 0.253 µM); 0.336 in assay [1] (first compound 0.8 µM); 0.376 in assay [1] (first compound 2.53 µM); 0.272 in assay [1] (first compound 8 µM); 0.491 in assay [2] (first compound 0.08 µM). The relative viability stood at 0.478 in assay [2] (first compound 0.253 µM); 0.462 in assay [2] (first compound 0.8 µM); 0.477 in assay [2] (first compound 2.53 µM); 0.356 in assay [2] (first compound 8 µM); 0.658 in assay [3] (first compound 0.08 µM); 0.58 in assay [3] (first compound 0.253 µM). Further, the relative viability in assay [3] (first compound 0.8 µM) was 0.493; in assay [3] (first compound 2.53 µM), 0.564; in assay [3] (first compound 8 µM), 0.561; in assay [4] (first compound 0.08 µM), 0.793; in assay [4] (first compound 0.253 µM), 0.828; in assay [4] (first compound 0.8 µM), 0.627. Moreover, the figures for the relative viability in assay [4] (first compound 2.53 µM) and in assay [4] (first compound 8 µM) were 0.798 and 0.609, respectively.

With NCI-H322M, the relative viability in assay [1] (first compound 0.08 µM) was found to be 0.429; in assay [1] (first compound 0.253 µM) it was 0.492; in assay [1] (first compound 0.8 µM), 0.463; in assay [1] (first compound 2.53 µM), 0.463; in assay [1] (first compound 8 µM), 0.439; in assay [2] (first compound 0.08 µM), 0.488. The relative viability in assay [2] (first compound 0.253 µM) stood at 0.467; in assay [2] (first compound 2.53 µM), 0.5; in assay [2] (first compound 8 µM), 0.502; in assay [3] (first compound 0.08 µM), 0.718; in assay [3] (first compound 0.253 µM), 0.718; in assay [3] (first compound 0.8 µM), 0.75. Besides, the relative viability in assay [3] (first compound 2.53 µM) is 0.73; in assay [3] (first compound 8 µM), 0.821; in assay [4] (first compound 0.08 µM), 0.761; in assay [4] (first compound 0.253 µM) it was 0.75; in assay [4] (first compound 0.8 µM), 0.731; in assay [4] (first compound 2.53 µM), 0.741. Also, the relative viability in assay [4] (first compound 8 µM) stood at 0.782.

Turning to NCI-H358, the relative viability amounted to 0.109 in assay [1] (first compound 0.08 µM); 0.0897 in assay [1] (first compound 0.253 µM); 0.104 in assay [1] (first compound 0.8 µM); 0.101 in assay [1] (first compound 2.53 µM); 0.091 in assay [1] (first compound 8 µM); 0.14 in assay [2] (first compound 0.08 µM). In addition, the relative viability in assay [2] (first compound 0.253 µM) is 0.149; in assay [2] (first compound 0.8 µM) it was 0.109; in assay [2] (first compound 2.53 µM), 0.14; in assay [2] (first compound 8 µM), 0.14; in assay [3] (first compound 0.08 µM) it was 0.64; in assay [3] (first compound 0.253 µM) it was 0.709. For the same cell line, the relative viability in assay [3] (first compound 0.8 µM) came out at 0.546; in assay [3] (first compound 2.53 µM) it was 0.592; in assay [3] (first compound 8 µM), 0.569; in assay [4] (first compound 0.08 µM), 0.325; in assay [4] (first compound 0.253 µM), 0.353; in assay [4] (first compound 0.8 µM), 0.309. For the same cell line, the relative viability was 0.305 in assay [4] (first compound 2.53 µM) and 0.259 in assay [4] (first compound 8 µM).

As for NCI-H441, the relative viability in assay [1] (first compound 0.08 µM) was 0.641; in assay [1] (first compound 0.253 µM), 0.555; in assay [1] (first compound 0.8 µM), 0.57; in assay [1] (first compound 2.53 µM) it was 0.508; in assay [1] (first compound 8 µM), 0.375; in assay [2] (first compound 0.08 µM) it was 0.192. Moreover, the relative viability was 0.196 in assay [2] (first compound 0.253 µM); 0.204 in assay [2] (first compound 0.8 µM); 0.178 in assay [2] (first compound 2.53 µM); 0.23 in assay [2] (first compound 8 µM); 0.55 in assay [3] (first compound 0.08 µM); 0.787 in assay [3] (first compound 0.253 µM). Also, the relative viability came out at 0.617 in assay [3] (first compound 0.8 µM); 0.466 in assay [3] (first compound 2.53 µM); 0.446 in assay [3] (first compound 8 µM); 0.782 in assay [4] (first compound 0.08 µM); 0.66 in assay [4] (first compound 0.253 µM); 0.609 in assay [4] (first compound 0.8 µM). In addition, the relative viability came to 0.641 in assay [4] (first compound 2.53 µM) and 0.556 in assay [4] (first compound 8 µM).

Turning to NCI-H460, the relative viability in assay [1] (first compound 0.08 µM) was found to be 0.461; in assay [1] (first compound 0.253 µM), 0.473; in assay [1] (first compound 0.8 µM), 0.474; in assay [1] (first compound 2.53 µM) it was 0.347; in assay [1] (first compound 8 µM), 0.389; in assay [2] (first compound 0.08 µM), 0.195. The relative viability in assay [2] (first compound 0.253 µM) was found to be 0.19; in assay [2] (first compound 0.8 µM), 0.223; in assay [2] (first compound 2.53 µM) it was 0.15; in assay [2] (first compound 8 µM), 0.159; in assay [3] (first compound 0.08 µM), 0.502; in assay [3] (first compound 0.253 µM), 0.408. Moreover, the relative viability in assay [3] (first compound 0.8 µM) was 0.458; in assay [3] (first compound 2.53 µM) it was 0.46; in assay [3] (first compound 8 µM) it was 0.409; in assay [4] (first compound 0.08 µM), 0.483; in assay [4] (first compound 0.253 µM) it was 0.697; in assay [4] (first compound 0.8 µM), 0.574. In addition, the relative viability was 0.489 in assay [4] (first compound 2.53 µM) and 0.545 in assay [4] (first compound 8 µM).

On to NCI-H520, for which the relative viability amounted to 0.432 in assay [1] (first compound 0.08 µM); 0.37 in assay [1] (first compound 0.253 µM); 0.422 in assay [1] (first compound 0.8 µM); 0.355 in assay [1] (first compound 2.53 µM); 0.331 in assay [1] (first compound 8 µM); 0.188 in assay [2] (first compound 0.08 µM). The relative viability in assay [2] (first compound 0.253 µM) is 0.195; in assay [2] (first compound 0.8 µM) it was 0.146; in assay [2] (first compound 2.53 µM) it was 0.205; in assay [2] (first compound 8 µM), 0.186; in assay [3] (first compound 0.08 µM) it was 0.848; in assay [3] (first compound 0.253 µM), 0.805. Also, the relative viability worked out at 0.641 in assay [3] (first compound 0.8 µM); 0.896 in assay [3] (first compound 2.53 µM); 0.802 in assay [3] (first compound 8 µM); 0.47 in assay [4] (first compound 0.08 µM); 0.577 in assay [4] (first compound 0.253 µM); 0.476 in assay [4] (first compound 0.8 µM). In addition, the relative viability in assay [4] (first compound 2.53 µM) amounted to 0.369; in assay [4] (first compound 8 µM), 0.279.

(Values after the supplement of paper PMC10307832.)
